Consider 6 molecules from patent publication US9126944B2, “Phenylpyrazole derivatives as potent ROCK1 and ROCK2 inhibitors” (BRISTOL-MYERS SQUIBB COMPANY, priority 2013, dated 2015).

Read-outs that look alike come from different tables or passages of the source.

For one assay, the target named is ROCK1 (Homo sapiens, UniProt Q13464). As to the kind of experiment: ROCK assay (LabChip peptide phosphorylation), ROCK1. Type of assay: biochemical. The following applies: 5 μM ATP, 1.5 μM peptide substrate.
Chain of ROCK1 (Q13464 whole entry, species assumed): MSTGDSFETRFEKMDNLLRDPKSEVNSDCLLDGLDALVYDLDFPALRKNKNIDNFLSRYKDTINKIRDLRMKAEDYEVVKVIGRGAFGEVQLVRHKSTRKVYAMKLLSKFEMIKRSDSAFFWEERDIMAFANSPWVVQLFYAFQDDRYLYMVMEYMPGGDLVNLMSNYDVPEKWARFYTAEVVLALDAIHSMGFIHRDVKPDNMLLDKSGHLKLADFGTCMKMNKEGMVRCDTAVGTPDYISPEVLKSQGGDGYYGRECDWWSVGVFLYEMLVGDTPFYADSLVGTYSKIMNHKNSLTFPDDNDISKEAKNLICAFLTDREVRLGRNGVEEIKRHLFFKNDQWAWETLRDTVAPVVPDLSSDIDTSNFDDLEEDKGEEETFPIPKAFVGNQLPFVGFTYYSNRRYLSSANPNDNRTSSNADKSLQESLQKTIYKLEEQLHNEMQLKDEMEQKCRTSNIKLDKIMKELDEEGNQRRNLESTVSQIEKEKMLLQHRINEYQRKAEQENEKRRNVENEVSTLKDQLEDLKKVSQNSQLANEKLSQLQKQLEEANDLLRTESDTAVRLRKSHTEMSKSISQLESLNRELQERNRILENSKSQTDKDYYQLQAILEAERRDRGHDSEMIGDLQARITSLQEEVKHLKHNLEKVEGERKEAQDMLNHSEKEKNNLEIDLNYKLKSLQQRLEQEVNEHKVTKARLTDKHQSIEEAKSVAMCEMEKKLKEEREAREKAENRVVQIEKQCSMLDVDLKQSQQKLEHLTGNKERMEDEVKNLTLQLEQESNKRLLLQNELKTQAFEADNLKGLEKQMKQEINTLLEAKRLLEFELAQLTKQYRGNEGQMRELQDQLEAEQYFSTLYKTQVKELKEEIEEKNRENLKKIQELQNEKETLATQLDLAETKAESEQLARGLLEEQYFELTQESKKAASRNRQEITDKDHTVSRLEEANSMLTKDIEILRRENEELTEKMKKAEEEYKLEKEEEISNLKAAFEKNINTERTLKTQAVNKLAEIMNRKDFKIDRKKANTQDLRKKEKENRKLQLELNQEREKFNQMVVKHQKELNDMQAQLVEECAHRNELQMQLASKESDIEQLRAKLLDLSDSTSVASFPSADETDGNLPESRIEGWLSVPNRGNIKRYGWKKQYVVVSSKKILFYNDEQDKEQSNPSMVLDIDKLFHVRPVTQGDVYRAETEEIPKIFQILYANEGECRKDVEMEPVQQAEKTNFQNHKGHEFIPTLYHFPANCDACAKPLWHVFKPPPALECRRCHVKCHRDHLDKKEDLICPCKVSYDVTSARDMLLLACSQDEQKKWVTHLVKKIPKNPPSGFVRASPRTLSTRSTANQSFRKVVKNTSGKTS
Assay [1] deals with three rat models of hypertension. The following applies: cited from earlier work.
The test system of another assay is neointimal formation. The following applies: rats, model similar to balloon injury; cited from earlier work.
Assay [2] has as its system IL-1 beta-induced coronary stenosis. Particulars: porcine model, long term treatment; cited from earlier work.

For orientation: IC50 means the concentration at which inhibition is half-maximal. The molecule `COc1cc(C(=O)NC(C)c2cc(F)cc(F)c2)ccc1-c1cn[nH]c1` (racemic) [Example 67, (+/−)-N-(1-(3,5-difluorophenyl)ethyl)-3-methoxy-4-(1H-pyrazol-4-yl)benzamide] came in with an IC50 against ROCK1 of 26.5 nM. The same measure, in the same setting: the figure for `COc1cc(C(=O)NCc2cccc(O)c2)ccc1-c1cn[nH]c1` [Example 6, N-(3-hydroxybenzyl)-3-methoxy-4-(1H-pyrazol-4-yl)benzamide] is 0.85 nM; for `COC(=O)c1cccc(CNC(=O)c2ccc(-c3cn[nH]c3)c(OC)c2)c1` [Example 8, methyl 3-((3-methoxy-4-(1H-pyrazol-4-yl)benzamido)methyl)benzo-ate] it is 2.63 nM. For the molecule `CNC(=O)c1cccc(CNC(=O)c2ccc(-c3cn[nH]c3)c(OC)c2)c1` [Example 65, 3-methoxy-N-(3-(methylcarbamoyl)benzyl)-4-(1H-pyrazol-4-yl)benzamide], the IC50 against ROCK1 amounted to 3.05 nM.

Take `C[C@@H](N)[C@H]1CC[C@H](C(=O)Nc2ccncc2)CC1` [Example Y-27632, Y-27632]: the blood pressure entry in assay [1] (control rats) is given as “only a minor effect on blood pressure”; in assay [1] (spontaneously hypertensive rat, renal hypertensive rat and deoxycortisone acetate salt hypertensive rat models) it was “significantly decrease blood pressure”. The neointimal formation entry with neointimal formation is on record as “inhibited neointimal formation”. As to `O=S(=O)(c1cccc2cnccc12)N1CCCNCC1` [fasudil], in assay [2], the coronary constrictive remodeling entry is on record as “promote a regression of coronary constrictive remodeling” and the coronary stenosis result is “progressively reduce coronary stenosis”.
